How the values were obtained:
Adamalysin II = Adamalysin II (Crotalus adamanteus, UniProt P34179); assay: biochemical
[1] = biological target: T1, Collagenase from neutrophiles (MMP-8) (Homo sapiens, UniProt P22894); assay: Inhibition of human enzyme Collagenase from neutrophiles (MMP-8), fluorescent substrate; assay type: biochemical; settings: expressed qualitatively; enzyme activated with p-aminomercuryacetate
T1 construct: G. Murphy (Strangeways Labs., Cambridge, UK); host or cells: human cell cultures
Method: (§1) The snythetized compounds were also tested on the enzyme of human orgin Gelatinase A, known also as MMP-2 (Matrix Metalloproteinase n. 2). The pure enzyme, extracted from human cultures and obtained from Pro. G. Murphy (Strangeways Labs., Cambridge, UK), was first activated with p-amino-mercuryacetate, and proteolytic activity was evidentiated with the use of an artificial fluorescent substratum MCA-PRO-LEU-GLY-LEU-DPA-ALA-ARG-NH2 (Strangeways Labs.), in spectrofluorimeter Perkin Elmer L 50B fixed at 328 nm for excitation and 393 nm for emission. To test inhibitory activity, synthetized compounds were incubated for 3 hours at room temperature in the presence of the enzyme, before adding the substratum.
The new synthetized derivatives were also tested on another zinc-dependent metalloproteinase of human orgin: the Collagenase from neutrophiles, also known as MMP-8 (Matrix Metalloproteinase N. 8). The pure enzyme extracted from human cell cultures and obtained from Prof. G. Murphy (Strangeways Labs., Cambridge, UK), was activated with p-aminomercuryacetate (2 hours at 37° C.), and enzymatic activity was followed by the spectrofluorimeter in the same way as described in the previous chapter.

Gelatinase A (MMP-2) = biological target: T2, Gelatinase A (MMP-2) (Homo sapiens, UniProt P08253); assay: Inhibition of the human enzyme Gelatinase A (MMP-2), fluorescent substrate; assay type: biochemical; settings: expressed qualitatively; compounds incubated 3 hours at room temperature with enzyme before substrate
T2 construct: G. Murphy (Strangeways Labs., Cambridge, UK); host or cells: human cultures
T2 sequence (P08253 110-660): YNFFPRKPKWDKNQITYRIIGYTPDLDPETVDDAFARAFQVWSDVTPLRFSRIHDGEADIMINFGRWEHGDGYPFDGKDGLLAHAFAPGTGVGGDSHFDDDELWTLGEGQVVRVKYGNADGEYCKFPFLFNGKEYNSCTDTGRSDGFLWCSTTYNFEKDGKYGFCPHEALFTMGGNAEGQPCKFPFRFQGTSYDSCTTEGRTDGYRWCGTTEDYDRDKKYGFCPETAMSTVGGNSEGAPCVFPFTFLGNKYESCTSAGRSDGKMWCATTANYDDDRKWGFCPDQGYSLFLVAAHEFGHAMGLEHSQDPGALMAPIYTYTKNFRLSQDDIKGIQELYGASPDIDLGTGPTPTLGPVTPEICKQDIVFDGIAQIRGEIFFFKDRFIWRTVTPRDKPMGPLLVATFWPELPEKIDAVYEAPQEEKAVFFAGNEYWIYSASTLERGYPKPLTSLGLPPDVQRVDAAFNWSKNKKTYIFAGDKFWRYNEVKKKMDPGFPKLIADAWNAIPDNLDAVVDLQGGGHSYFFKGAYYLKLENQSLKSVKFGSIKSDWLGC
Method: as §1

T1 sequence (P22894 101-467): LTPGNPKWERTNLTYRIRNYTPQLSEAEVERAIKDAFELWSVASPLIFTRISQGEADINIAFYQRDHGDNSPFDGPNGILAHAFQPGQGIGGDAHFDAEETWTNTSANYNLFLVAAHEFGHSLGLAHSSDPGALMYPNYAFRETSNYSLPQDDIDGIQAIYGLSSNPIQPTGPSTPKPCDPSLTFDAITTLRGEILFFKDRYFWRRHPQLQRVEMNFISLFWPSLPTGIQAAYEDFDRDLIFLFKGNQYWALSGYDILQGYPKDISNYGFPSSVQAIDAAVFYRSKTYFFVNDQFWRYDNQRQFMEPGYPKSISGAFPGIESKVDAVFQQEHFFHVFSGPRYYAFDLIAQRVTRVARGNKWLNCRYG
Adamalysin II, sequence (P34179 whole entry, looked up): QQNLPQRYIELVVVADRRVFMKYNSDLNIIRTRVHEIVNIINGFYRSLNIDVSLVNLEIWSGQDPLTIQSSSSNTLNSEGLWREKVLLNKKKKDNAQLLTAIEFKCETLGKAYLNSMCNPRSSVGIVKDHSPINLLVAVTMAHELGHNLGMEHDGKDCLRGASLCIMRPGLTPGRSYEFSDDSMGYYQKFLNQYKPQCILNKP

| Compound | IC50 (Adamalysin II) [µM] | INHIBITION [1] | INHIBITION (Gelatinase A (MMP-2)) |
| --- | --- | --- | --- |
| CCOP(=O)(OCC)C(Cc1c[nH]c2ccccc12)NC(=O)[C@H](CC(C)C)NC(=O)c1ccco1 (stereo partly drawn) [Compound n.3a, N-[(furan-2-yl)carbonyl]-L-leucyne-(1)-phosphotryptophan diethylester] | 0.4 | Fair | Fair |
| CCOP(=O)(OCC)C(Cc1c[nH]c2ccccc12)NC(=O)[C@H](CC(C)C)NC(=O)c1ccc[nH]1 (stereo partly drawn) [Compound n.3b, N-[(Pyrrol-2-yl)carbonyl]-L-leucyl-(1)-phosphotryptophan diethylester] | 0.22 | Good | Good |
| CCOP(=O)(OCC)C(Cc1c[nH]c2ccccc12)NC(=O)[C@H](CC(C)C)NC(=O)[C@@H]1CCCN1C(=O)OCc1ccccc1 (stereo partly drawn) [Compound n.3c, N-benzyloxycarbonyl-L-pyrolyl-L-eucyl-(1)-phosphtryptophan diethylester] | 22 | Good | Good |
| CCOP(=O)(OCC)C(Cc1c[nH]c2ccccc12)NC(=O)[C@H](CC(C)C)NC(=O)[C@@H]1CCC(=O)O1 (stereo partly drawn) [Compound n.3e, N-{[(S)-(5-oxo-tetrahydrofuran-2-yl)carbonyl]}-L-leucyl-(1)-phosphotryptophan diethylester] | 0.55 | Fair | Fair |
| CCOP(=O)(OCC)C(Cc1c[nH]c2ccccc12)NC(=O)[C@H](CC(C)C)NC(=O)[C@@H]1CSC(=O)N1 (stereo partly drawn) [Compound n.3f, N-{[(R)-(2-oxo-thiazolidine-4-yl)carbonyl]}-L-leucyl-(1)-phosphotryptophan diethylester] | 1 | Good | Fair |
| CC(C)C[C@H](NC(=O)c1ccco1)C(=O)NC(Cc1c[nH]c2ccccc12)P(=O)(OCc1ccccc1)OCc1ccccc1 (stereo partly drawn) [Compound n.9, N-[(Furan-2-yl)carbonyl]-L-leucyl-(1)-phosphotryptophan dibenzylester] | 7.2 | Fair | None |

From US6339160B1 (priority 1997, dated 2002)
